Test system: tubulin
Experiment: tubulin assembly inhibition, turbidimetry at […] nm
Format: biochemical, Bos taurus
Conditions: read-out: Inhibition of / Tubulin Assembly IC50±SD

`COc1ccc(N(C)c2nc(C)nc3cc[nH]c23)cc1` [compound 3, N-(4-Methoxyphenyl)-N,2-dimethyl-5H-pyrrolo[3,2-d]pyrimidin-4-amine] was tested, and the IC50 was 10 ± 0.6 µM.
